We go through 24 compounds from ChEMBL document CHEMBL1138970, “Structure-activity relationships of [2',5'-bis-O-(tert-butyldimethylsilyl)-beta-D-ribofuranosyl]- 3'-spiro-5' '-(4' '-amino-1' ',2' '-oxathiole-2' ',2' '-dioxide)thymine derivatives as inhibitors of HIV-1 reverse transcriptase dimerization” (J Med Chem, 2006).

As usually defined, the EC50 is the concentration at which the effect is half-maximal. A high value points to weaker potency. A word on the CC50: it is the concentration at which the toxic effect on the cells reaches its halfway point. A higher CC50 goes with better tolerance by the cells. Broadly, the IC50 is the concentration at which inhibition is half-maximal. High values mean lower potency, low ones higher potency.

The subject of data set [1] is Human immunodeficiency virus 1. The data set can be described thus: Antiviral activity against HIV1 in MT4 cells. Conditions: Human immunodeficiency virus 1, MT4. Format: functional, organism-based.
A short description of data set [2]: Inhibition of MT4 cell viability. The data set is classed as cell-based. Particulars: human, MT4 cells.
Data set [3] has as its target T1, Human immunodeficiency virus type 1 reverse transcriptase (Human immunodeficiency virus 1, UniProt Q72547). Briefly: Inhibition of FLAG-p66/HIS-p51-mediated HIV1 reverse transcriptase dimerization.
Data set [4] concerns the target T1, Human immunodeficiency virus type 1 reverse transcriptase. The data set can be described thus: Inhibition of HIV1 reverse transcriptase RNA-dependent DNA polymerase activity.

As for `Cc1cn(C2OC(CO[Si](C)(C)C(C)(C)C)CC2O[Si](C)(C)C(C)(C)C)c(=O)n(CC(=O)O)c1=O` (stereo unspecified), a half-maximal response in data set [1] (EC50) required 6.39 µM. The compound also returned a CC50 in data set [2] of 17 µM. For the same compound, the IC50 in data set [3] came to 1.1 µM; in data set [4], 5.7 µM.

`Cc1cn([C@@H]2O[C@H](CO[Si](C)(C)C(C)(C)C)[C@@]3(OS(=O)(=O)C=C3N)[C@H]2O[Si](C)(C)C(C)(C)C)c(=O)[nH]c1=O`: the EC50 in data set [1] is 0.06 µM. Besides, in data set [2], half-maximal cytotoxicity (CC50) was put at 14 µM. Also, the figures for the 50% inhibitory concentration (IC50) in data set [3] and in data set [4] were 6.7 µM and 1 µM, respectively.

With `CCc1cn([C@@H]2O[C@H](CO[Si](C)(C)C(C)(C)C)[C@@]3(OS(=O)(=O)C=C3N)[C@H]2O[Si](C)(C)C(C)(C)C)c(=O)[nH]c1=O`, it took 0.06 µM to reach a half-maximal effect in data set [1] (EC50). This compound showed a CC50 in data set [2] of 20 µM. Besides, the half-maximal inhibitory concentration (IC50) came to 8.5 µM in data set [3] and 3.4 µM in data set [4].

On to `Cc1cn([C@@H]2O[C@H](CO[Si](C)(C)C(C)(C)C)[C@@]3(OS(=O)(=O)C=C3N)[C@H]2O[Si](C)(C)C(C)(C)C)c(=O)n(C)c1=O`, for which a half-maximal effect in data set [1] (EC50) was put at 0.06 µM. This compound yielded a half-maximal cytotoxic concentration (CC50) in data set [2] of 240 µM. In addition, the IC50 amounted to 5.7 µM in data set [3] and 1.3 µM in data set [4].

With `Cc1cn([C@@H]2O[C@H](CO[Si](C)(C)C(C)(C)C)[C@@]3(OS(=O)(=O)C(I)=C3N)[C@H]2O[Si](C)(C)C(C)(C)C)c(=O)[nH]c1=O`, in data set [1], the midpoint of the response, the EC50, lay at 0.12 µM. This compound registered a half-maximal cytotoxic concentration (CC50) in data set [2] of 4 µM. In addition, the values for the IC50 in data set [3] and in data set [4] were 3.5 µM and 8 µM, respectively.

`Cc1cn([C@@H]2O[C@H](CO[Si](C)(C)C(C)(C)C)[C@@]3(OS(=O)(=O)C=C3N)[C@H]2O[Si](C)(C)C(C)(C)C)c(=O)n(CC2CO2)c1=O` (stereo partly specified) yielded an EC50 in data set [1] of 0.11 µM. The compound also registered a 50% cytotoxic concentration (CC50) in data set [2] of 56 µM. The IC50 was 5 µM in data set [3] and 2.4 µM in data set [4].

`Cc1cn([C@@H]2O[C@H](CO[Si](C)(C)C(C)(C)C)[C@@]3(OS(=O)(=O)C=C3N=C(N)N)[C@H]2O[Si](C)(C)C(C)(C)C)c(=O)[nH]c1=O`: it took 0.96 µM to reach a half-maximal effect in data set [1] (EC50). For the same compound, in data set [2], the CC50 worked out at 87 µM. Also, the IC50 amounted to 14 µM in data set [3] and 3.8 µM in data set [4].

Regarding `Cc1cn([C@@H]2O[C@H](CO[Si](C)(C)C(C)(C)C)[C@@]3(OS(=O)(=O)C=C3N)[C@H]2O[Si](C)(C)C(C)(C)C)c(=O)n(/C=C/CO)c1=O`, in data set [1], the half-maximal effective concentration (EC50) was 0.04 µM. The CC50 in data set [2] is 4 µM. Further, the IC50 in data set [3] stood at 1.9 µM; in data set [4] it was 0.5 µM.

In turn, `CN(C)C(=O)c1cnnn1[C@@H]1O[C@H](CO[Si](C)(C)C(C)(C)C)[C@@]2(OS(=O)(=O)C=C2N)[C@H]1O[Si](C)(C)C(C)(C)C` had an EC50 in data set [1] of 0.04 µM. It took 12 µM to reach half-maximal cytotoxicity in data set [2] (CC50). Besides, the IC50 in data set [3] stood at 11.7 µM; in data set [4], 6.4 µM.

In the case of `Cc1cn([C@@H]2O[C@H](CO[Si](C)(C)C(C)(C)C)[C@@]3(OS(=O)(=O)C=C3N)[C@H]2O[Si](C)(C)C(C)(C)C)c(=O)n(CCc2ccccc2)c1=O`, the half-maximal effective concentration (EC50) in data set [1] turned out to be 0.84 µM. Moreover, the CC50 in data set [2] is 2 µM. The IC50 came out at 3 µM in data set [3] and 0.8 µM in data set [4].

In the case of `Cc1cn([C@@H]2O[C@H](CO[Si](C)(C)C(C)(C)C)[C@@]3(OS(=O)(=O)C=C3N)[C@H]2O[Si](C)(C)C(C)(C)C)c(=O)n(CC(=O)N[C@@H](CC(=O)O)C(=O)O)c1=O`, the response in data set [1] was half-maximal at 6.29 µM (EC50). In data set [2], this compound registered a 50% cytotoxic concentration (CC50) of more than 250 µM. The IC50 in data set [3] is 11.9 µM; in data set [4], 9.1 µM.

The compound `CNC(=O)CCCCn1c(=O)c(C)cn([C@@H]2O[C@H](CO[Si](C)(C)C(C)(C)C)[C@@]3(OS(=O)(=O)C=C3N)[C@H]2O[Si](C)(C)C(C)(C)C)c1=O` registered a 50% effective concentration (EC50) in data set [1] of 0.05 µM. In data set [2], this compound gave a CC50 of more than 250 µM. Also, the IC50 in data set [3] turned out to be 6.8 µM; in data set [4], 3.2 µM.

For the compound `Cc1cn([C@@H]2O[C@H](CO[Si](C)(C)C(C)(C)C)[C@@H](O)[C@H]2O[Si](C)(C)C(C)(C)C)c(=O)n(CC(=O)O)c1=O`, the EC50 in data set [1] amounted to 5.35 µM. The compound also showed a cytotoxic concentration (CC50) in data set [2] of 19 µM. The half-inhibitory concentration (IC50) in data set [3] and in data set [4] was 6.6 µM throughout.

Consider `Cc1cn([C@@H]2O[C@H](CO[Si](C)(C)C(C)(C)C)[C@@]3(OS(=O)(=O)C=C3N)[C@H]2O[Si](C)(C)C(C)(C)C)c(=O)n(CCCN(CC(=O)O)CC(=O)O)c1=O`, for which a half-maximal effect in data set [1] (EC50) was put at 8.32 µM. The CC50 in data set [2] was 123 µM. Besides, the values for the IC50 in data set [3] and in data set [4] were 5.2 µM and 10.6 µM, respectively.

In data set [1], `Cc1cn([C@@H]2O[C@H](CO[Si](C)(C)C(C)(C)C)[C@@]3(OS(=O)(=O)C=C3N)[C@H]2O[Si](C)(C)C(C)(C)C)c(=O)n(/C=C\CO)c1=O` came in with a concentration giving a half-maximal response (EC50) of 0.32 µM. In data set [2], this compound came in with a CC50 of 36 µM. For the same compound, the IC50 in data set [3] amounted to 3.1 µM; in data set [4], 1.6 µM.

In data set [1], `Cc1cn([C@@H]2O[C@H](CO[Si](C)(C)C(C)(C)C)[C@@]3(OS(=O)(=O)C(/C=C/CO)=C3N)[C@H]2O[Si](C)(C)C(C)(C)C)c(=O)[nH]c1=O` yielded a concentration giving a half-maximal response (EC50) of 6.63 µM. In data set [2], half-maximal cytotoxicity (CC50) was put at 17 µM. The 50% inhibitory concentration (IC50) in data set [3] is 16 µM; in data set [4], 4.8 µM.

`COC(=O)C(=O)NC1=CS(=O)(=O)O[C@@]12[C@@H](COCc1ccccc1)O[C@@H](n1cc(C)c(=O)n(C)c1=O)[C@@H]2O[Si](C)(C)C(C)(C)C`: the EC50 in data set [1] is 4.5 µM. For the same compound, the CC50 in data set [2] came out at 4 µM. The IC50 in data set [3] was 7.2 µM; in data set [4] it was 5.4 µM.

Turning to `Cc1cn([C@@H]2O[C@H](CO[Si](C)(C)C(C)(C)C)[C@@]3(OS(=O)(=O)C=C3N)[C@H]2O[Si](C)(C)C(C)(C)C)c(=O)n(CC(N)=O)c1=O`, in data set [1], the concentration for a half-maximal effect (EC50) was found to be 0.07 µM. Moreover, the cytotoxic concentration (CC50) in data set [2] is 18 µM. The IC50 in data set [3] amounted to 7 µM; in data set [4], 1.7 µM.

In the case of `Cc1cn([C@@H]2O[C@H](CO[Si](C)(C)C(C)(C)C)[C@@]3(OS(=O)(=O)C=C3N)[C@H]2O[Si](C)(C)C(C)(C)C)c(=O)n(CC(=O)O)c1=O`, a half-maximal effect in data set [1] (EC50) was put at 6.22 µM. In data set [2], this compound yielded a 50% cytotoxic concentration (CC50) of more than 155 µM. Moreover, the half-maximal inhibitory concentration (IC50) was 5.5 µM in data set [3] and 3.2 µM in data set [4].

The compound `Cc1cn([C@@H]2O[C@H](CO[Si](C)(C)C(C)(C)C)[C@@]3(OS(=O)(=O)C=C3N)[C@H]2O[Si](C)(C)C(C)(C)C)c(=O)n(CC(=O)N[C@@H](C)C(=O)O)c1=O` displayed an EC50 in data set [1] of 5.7 µM. Also, the half-maximal cytotoxic concentration (CC50) in data set [2] is more than 250 µM. Moreover, the IC50 in data set [3] is 12 µM; in data set [4], 3.1 µM.

Turning to `Cc1cn([C@@H]2O[C@H](CO[Si](C)(C)C(C)(C)C)[C@@]3(OS(=O)(=O)C=C3N)[C@H]2O[Si](C)(C)C(C)(C)C)c(=O)n(CCCN)c1=O`, the EC50 in data set [1] was 0.52 µM. Besides, the cytotoxic concentration (CC50) in data set [2] was 14 µM. In addition, the half-maximal inhibitory concentration (IC50) in data set [3] was 7.2 µM; in data set [4], 4.4 µM.

In data set [1], `CCCn1c(=O)c(C)cn([C@@H]2O[C@H](CO[Si](C)(C)C(C)(C)C)[C@@]3(OS(=O)(=O)C=C3N)[C@H]2O[Si](C)(C)C(C)(C)C)c1=O` came in with an EC50 of 0.26 µM. The CC50 in data set [2] is 75 µM. Also, the 50% inhibitory concentration (IC50) in data set [3] worked out at 4.3 µM; in data set [4] it was 0.5 µM.

The compound `Cc1cn([C@@H]2O[C@H](CO[Si](C)(C)C(C)(C)C)[C@@]3(OS(=O)(=O)C=C3N)[C@H]2O[Si](C)(C)C(C)(C)C)c(=O)n(CCCO)c1=O` gave an EC50 in data set [1] of 0.03 µM. The same compound showed a CC50 in data set [2] of 4 µM. Further, the concentration for half-maximal inhibition (IC50) was found to be 1.6 µM in data set [3] and 0.7 µM in data set [4].

Compound `CC(C)(C)[Si](C)(C)OC[C@H]1O[C@@H](n2nncc2C(N)=O)[C@H](O[Si](C)(C)C(C)(C)C)[C@]12OS(=O)(=O)C=C2N` registered a concentration giving a half-maximal response (EC50) in data set [1] of 0.52 µM. The same compound showed a CC50 in data set [2] of 15 µM. The concentration for half-maximal inhibition (IC50) in data set [3] stood at 10.1 µM; in data set [4] it was 8.4 µM.
